± gives the expanded uncertainty stated by the source.
How the values were obtained:
[1] = xn = mol fraction of the nth substance listed; settings: 298 K, 101.3 kPa, Liquid
[2] = 298.15 K; 101.3 kPa; Liquid

CC(=O)OCCC(C)C [3-methylbutyl ethanoate] + C=C(C)C(=O)OC
[1]
Settings	mass density [kg/m3]
x1 = 0.0263	934.984 ± 0.16
x1 = 0.0515	932.526 ± 0.17
x1 = 0.1007	927.871 ± 0.18
x1 = 0.1599	922.52 ± 0.19
x1 = 0.2002	919.025 ± 0.2
x1 = 0.25	914.86 ± 0.21
x1 = 0.3053	910.408 ± 0.22
x1 = 0.3502	906.93 ± 0.23
x1 = 0.4005	903.17 ± 0.24
x1 = 0.4504	899.578 ± 0.25
x1 = 0.5005	896.102 ± 0.26
x1 = 0.5502	892.767 ± 0.27
x1 = 0.6005	889.513 ± 0.28
x1 = 0.6538	886.188 ± 0.29
x1 = 0.7003	883.384 ± 0.3
x1 = 0.7508	880.451 ± 0.31
x1 = 0.8003	877.66 ± 0.32
x1 = 0.85	874.956 ± 0.33
x1 = 0.9002	872.311 ± 0.34
x1 = 0.9499	869.798 ± 0.35
x1 = 0.9751	868.558 ± 0.36
x1 = 1	867.356 ± 0.36

C=C(C)C(=O)OC [methyl methacrylate]
Settings	mass density [kg/m3]
[2]	937.628 ± 0.16

C=CC(=O)OCCCC [butyl 2-propenoate]
Settings	mass density [kg/m3]
[2]	893.947 ± 0.2

C=CC(=O)OCC [ethyl propenoate]
Settings	mass density [kg/m3]
[2]	916.124 ± 0.2

C=CC(=O)OCCCC [butyl 2-propenoate] + CC(=O)OCCC(C)C
[1]
Settings	mass density [kg/m3]
x2 = 0	893.947 ± 0.2
x2 = 0.0257	893.222 ± 0.2
x2 = 0.0496	892.552 ± 0.2
x2 = 0.1035	891.059 ± 0.21
x2 = 0.1504	889.769 ± 0.21
x2 = 0.2	888.407 ± 0.22
x2 = 0.2504	887.04 ± 0.23
x2 = 0.2999	885.689 ± 0.23
x2 = 0.3512	884.304 ± 0.24
x2 = 0.4001	882.985 ± 0.25
x2 = 0.4521	881.596 ± 0.26
x2 = 0.5	880.304 ± 0.27
x2 = 0.55	878.984 ± 0.28
x2 = 0.6	877.664 ± 0.28
x2 = 0.65	876.356 ± 0.29
x2 = 0.7003	875.048 ± 0.3
x2 = 0.7502	873.751 ± 0.31
x2 = 0.7998	872.467 ± 0.32
x2 = 0.85	871.176 ± 0.33
x2 = 0.9	869.889 ± 0.34
x2 = 0.95	868.618 ± 0.35
x2 = 0.9752	867.98 ± 0.36

CC(=O)OCCC(C)C [3-methylbutyl ethanoate] + C=Cc1ccccc1
[1]
Settings	mass density [kg/m3]
x1 = 0.0293	900.833 ± 0.19
x1 = 0.0529	899.946 ± 0.2
x1 = 0.0997	898.18 ± 0.2
x1 = 0.1502	896.274 ± 0.21
x1 = 0.2	894.422 ± 0.21
x1 = 0.2502	892.59 ± 0.22
x1 = 0.3064	890.541 ± 0.23
x1 = 0.3509	888.929 ± 0.24
x1 = 0.4042	887.046 ± 0.25
x1 = 0.4508	885.398 ± 0.26
x1 = 0.5011	883.646 ± 0.27
x1 = 0.5571	881.719 ± 0.28
x1 = 0.6002	880.257 ± 0.28
x1 = 0.6507	878.546 ± 0.29
x1 = 0.7003	876.895 ± 0.3
x1 = 0.7514	875.198 ± 0.31
x1 = 0.7999	873.614 ± 0.32
x1 = 0.8507	871.983 ± 0.33
x1 = 0.9005	870.41 ± 0.34
x1 = 0.9499	868.881 ± 0.35
x1 = 0.9747	868.119 ± 0.36
x1 = 1	867.356 ± 0.36

CC(=O)OCCC(C)C [3-methylbutyl ethanoate] + C=CC(=O)OCCCC
Settings	mass density [kg/m3]
[1], x1 = 1	867.356 ± 0.36

CC(=O)OCCC(C)C [3-methylbutyl ethanoate]
Settings	mass density [kg/m3]
[2]	867.356 ± 0.36

C=CC(=O)OCC [ethyl propenoate] + CC(=O)OCCC(C)C
[1]
Settings	mass density [kg/m3]
x2 = 0	916.124 ± 0.2
x2 = 0.031	913.999 ± 0.2
x2 = 0.0501	912.721 ± 0.2
x2 = 0.0999	909.503 ± 0.21
x2 = 0.1505	906.326 ± 0.22
x2 = 0.2012	903.286 ± 0.23
x2 = 0.2501	900.442 ± 0.23
x2 = 0.301	897.604 ± 0.24
x2 = 0.3512	894.897 ± 0.25
x2 = 0.402	892.257 ± 0.26
x2 = 0.4505	889.84 ± 0.27
x2 = 0.501	887.406 ± 0.28
x2 = 0.5502	885.117 ± 0.29
x2 = 0.6002	882.87 ± 0.29
x2 = 0.6518	880.634 ± 0.3
x2 = 0.7001	878.602 ± 0.31
x2 = 0.7499	876.582 ± 0.32
x2 = 0.8008	874.573 ± 0.33
x2 = 0.8514	872.644 ± 0.34
x2 = 0.9001	870.846 ± 0.34
x2 = 0.9503	869.055 ± 0.35
x2 = 0.9752	868.197 ± 0.36

C=Cc1ccccc1 [styrene] + CC(=O)OCCC(C)C
Settings	mass density [kg/m3]
[1], x2 = 0	901.941 ± 0.19

C=Cc1ccccc1 [styrene]
Settings	mass density [kg/m3]
[2]	901.941 ± 0.19

CC(=O)OCCC(C)C [3-methylbutyl ethanoate] + C=CC(=O)OCC
Settings	mass density [kg/m3]
[1], x1 = 1	867.356 ± 0.36

C=C(C)C(=O)OC [methyl methacrylate] + CC(=O)OCCC(C)C
Settings	mass density [kg/m3]
[1], x2 = 0	937.628 ± 0.16
